Results on six compounds are retold here after ChEMBL document CHEMBL4043081, “Do spiroindolines have the potential to replace vesamicol as lead compound for the development of radioligands targeting the vesicular acetylcholine transporter?” (Bioorg Med Chem, 2017).

In assay [1] the target is T1, Sigma intracellular receptor 2 (Rattus norvegicus, UniProt Q5U3Y7).
T1 sequence (Q5U3Y7 whole entry): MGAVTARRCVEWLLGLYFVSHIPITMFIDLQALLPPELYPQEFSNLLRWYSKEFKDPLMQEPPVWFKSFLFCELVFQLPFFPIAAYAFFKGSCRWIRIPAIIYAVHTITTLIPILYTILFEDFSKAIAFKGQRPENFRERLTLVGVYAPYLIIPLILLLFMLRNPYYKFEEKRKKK
Briefly: Displacement of [3H]pentazocine from sigma2 receptor in Sprague-Dawley rat liver membranes incubated for 120 mins by liquid scintillation counting. The assay is classed as cell membranes, Membrane.

Assay [2] has as its target T2, Vesicular acetylcholine transporter (Rattus norvegicus, UniProt Q62666).
T2 sequence (Q62666 whole entry): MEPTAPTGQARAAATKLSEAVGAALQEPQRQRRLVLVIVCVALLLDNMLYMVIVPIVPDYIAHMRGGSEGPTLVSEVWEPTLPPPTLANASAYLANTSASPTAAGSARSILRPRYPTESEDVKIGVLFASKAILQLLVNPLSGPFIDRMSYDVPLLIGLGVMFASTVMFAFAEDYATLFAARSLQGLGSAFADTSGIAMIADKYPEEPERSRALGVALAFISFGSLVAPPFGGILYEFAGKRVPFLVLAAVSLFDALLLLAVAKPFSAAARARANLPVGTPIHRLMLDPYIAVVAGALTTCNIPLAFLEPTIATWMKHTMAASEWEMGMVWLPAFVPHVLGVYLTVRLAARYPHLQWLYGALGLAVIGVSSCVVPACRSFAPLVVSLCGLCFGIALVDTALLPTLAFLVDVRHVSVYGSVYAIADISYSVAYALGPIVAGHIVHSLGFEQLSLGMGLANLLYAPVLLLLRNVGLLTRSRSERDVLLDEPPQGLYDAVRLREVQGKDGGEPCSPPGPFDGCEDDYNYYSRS
The assay is described as follows: Displacement of [3H]vesamicol from rat VAChT expressed in rat PC12 cell membranes incubated for 120 mins by liquid scintillation counting.

The target in assay [3] is Sigma non-opioid intracellular receptor 1 (Rattus norvegicus, UniProt Q9R0C9). The assay is described as follows: Displacement of [3H]pentazocine from sigma1 receptor in Sprague-Dawley rat cortex membranes incubated for 120 mins by liquid scintillation counting. The assay is classed as cell membranes.
The target in assay [4] is T3, Vesicular acetylcholine transporter (Rattus norvegicus) (UniProt Q62666).
T3 sequence (whole entry): T2 sequence (Q62666 whole entry)
Briefly: Binding affinity to rat VAChT expressed in rat PC12 cell membranes assessed as induction of rightward shift of vesamicol binding curves at 100 and 100 nM incubated for 120 mins by liquid scintillation counting based [3H]vesamicol binding assay.

pKi: −log10 of the molar value. Calls of active or inactive are those of the source. No cut-off for these calls is given here. Bounds are passed on as bounds.

Sequence of Sigma non-opioid intracellular receptor 1 (Q9R0C9 whole entry): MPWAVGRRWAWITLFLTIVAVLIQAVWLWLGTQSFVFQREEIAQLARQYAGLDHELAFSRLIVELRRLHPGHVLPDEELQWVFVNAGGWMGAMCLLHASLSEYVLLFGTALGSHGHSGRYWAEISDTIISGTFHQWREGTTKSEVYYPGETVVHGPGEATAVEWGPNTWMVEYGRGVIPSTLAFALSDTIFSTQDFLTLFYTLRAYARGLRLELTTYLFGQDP

For `O=C(OCCF)N1CC2(CCN(C/C=C/c3ccc(Cl)cc3)CC2)c2cc(F)ccc21`, the pKi was 5.82 in assay [1], 6.48 in assay [2] and 7.36 in assay [3].

Consider `O=C(c1ccnc(Cl)c1)N1CC2(CCN(C/C=C/c3ccc(Cl)cc3)CC2)c2cc(F)ccc21`, for which the figures for the negative logarithm of the Ki (pKi) in assay [1], in assay [2] and in assay [3] were 5.93, 6.82 and 6.86, respectively. Also, the result in assay [4] was Active.

For the compound `O=C(c1ccc(Br)nc1)N1CC2(CCN(C/C=C/c3ccc(Cl)cc3)CC2)c2cc(F)ccc21`, the results for the pKi in assay [1], in assay [2] and in assay [3] were 7.22, 7.41 and 6.75, respectively.

In the case of `O=C(c1ccc(F)nc1)N1CC2(CCN(C/C=C/c3ccc(Cl)cc3)CC2)c2cc(F)ccc21`, the pKi in assay [1] was below 5.00; in assay [2], 6.42; in assay [3] it was 6.55.

For `O=C(c1ccc(F)cc1)N1CC2(CCN(C/C=C/c3ccc(Cl)cc3)CC2)c2cc(F)ccc21`, the negative logarithm of the Ki (pKi) was 5.92 in assay [1], 6.61 in assay [2] and 6.53 in assay [3].

With `O=C(c1ccnc(F)c1)N1CC2(CCN(C/C=C/c3ccc(Cl)cc3)CC2)c2cc(F)ccc21`, the pKi is 6.13 in assay [1], 6.96 in assay [2] and 7.26 in assay [3].
